Data from patent publication US11807693B2 (priority 2014, dated 2023).
Starred links: 1 amine or outer side, 2 acyl side, 3 side chain; linkers in the order of their positions; H or OH if unused. Non-standard residues stand in square brackets, D forms with d. Residues, ends and D or L forms follow the SMILES beside them. *: point of attachment. dBip = N[C@H](Cc1ccc(-c2ccccc2)cc1)C(=O)O; Oic = O=C(O)[C@@H]1C[C@@H]2CCCC[C@@H]2N1; Phe(4-Cl) = N[C@@H](Cc1ccc(Cl)cc1)C(=O)O; Phe(4-I) = N[C@@H](Cc1ccc(I)cc1)C(=O)O; γGlu = O=C(O)[C@H](CCC(=O)[*:2])N[*:1]; d(β3hF) = N[C@@H](CC(=O)O)Cc1ccccc1; Igl = N[C@H](C(=O)O)C1Cc2ccccc2C1; NMeR = CN[C@@H](CCCNC(=N)N)C(=O)O; Palmitoyl = CCCCCCCCCCCCCCCC(=O)*; Tridecanoyl = CCCCCCCCCCCCC(=O)*; hArg = N=C(N)NCCCC[C@H](N)C(=O)O; Cha = N[C@@H](CC1CCCCC1)C(=O)O; NMeL = CN[C@@H](CC(C)C)C(=O)O; αMeL = CC(C)C[C@](C)(N)C(=O)O; β3hP = O=C(O)C[C@@H]1CCCN1; Pip = O=C(O)[C@@H]1CCCCN1; Nle = CCCC[C@H](N)C(=O)O; Dap = NC[C@H](N)C(=O)O; AEEA = NCCOCCOCC(=O)O; Aib = CC(C)(N)C(=O)O; NPrGly = CCCNCC(=O)O

Legend:
human APJ receptor = biological target: T1, human APJ receptor (Homo sapiens, UniProt P35414); experiment: [35S] GTPγS assay, human APJ receptor; type: biochemical; conditions: human APJ receptor
T1 construct: expressed in transfected cells
T1 sequence (P35414 1-380): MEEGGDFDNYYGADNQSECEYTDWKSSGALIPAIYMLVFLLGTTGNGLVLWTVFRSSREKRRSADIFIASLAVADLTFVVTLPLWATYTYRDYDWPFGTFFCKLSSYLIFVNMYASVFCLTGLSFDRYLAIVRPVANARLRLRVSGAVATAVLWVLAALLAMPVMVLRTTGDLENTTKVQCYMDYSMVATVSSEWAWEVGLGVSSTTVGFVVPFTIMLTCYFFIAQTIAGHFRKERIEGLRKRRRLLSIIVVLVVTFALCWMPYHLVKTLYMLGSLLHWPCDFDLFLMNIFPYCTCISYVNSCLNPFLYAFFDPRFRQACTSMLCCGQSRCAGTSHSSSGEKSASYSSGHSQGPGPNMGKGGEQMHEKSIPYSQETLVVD

rat APJ receptor = biological target: T2, rat APJ receptor (Rattus norvegicus, UniProt Q9JHG3); experiment: [35S] GTPγS assay, rat APJ receptor; type: biochemical; conditions: rat APJ receptor, read-out: EC50 Rat APJ Receptor
T2 construct: expressed in transfected cells
T2 sequence (Q9JHG3 1-377): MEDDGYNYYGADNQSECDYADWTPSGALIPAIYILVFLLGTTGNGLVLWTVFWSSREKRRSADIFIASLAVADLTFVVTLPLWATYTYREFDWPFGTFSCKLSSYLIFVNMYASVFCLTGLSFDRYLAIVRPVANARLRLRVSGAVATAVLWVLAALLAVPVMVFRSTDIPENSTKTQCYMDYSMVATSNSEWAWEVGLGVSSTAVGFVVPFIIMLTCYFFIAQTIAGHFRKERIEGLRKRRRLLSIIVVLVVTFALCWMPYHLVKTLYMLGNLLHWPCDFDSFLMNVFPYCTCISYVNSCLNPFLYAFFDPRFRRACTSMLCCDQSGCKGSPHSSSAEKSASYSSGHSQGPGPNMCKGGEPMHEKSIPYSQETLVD
Experimental: The membranes were incubated with modified peptides in the assay buffer. […] Bound [^35S] GTPγS was separated from free radiolabel by filtration. The filter bound radioactivity was determined by liquid scintillation counting.

EC50 (human APJ receptor) | EC50 (rat APJ receptor) | Structure (SMILES)
11.1 nM | 20.1 nM | CCCCCCCCCCCCCCCC(=O)N[C@@H](CCC(=O)NCCOCCOCC(=O)NCCOCCOCC(=O)N[C@H](CCC(N)=O)C(=O)N[C@@H](CCCNC(=N)N)C(=O)N1CCC[C@H]1C(=O)N(C)[C@@H](CCCNC(=N)N)C(=O)N[C@@H](CC1CCCCC1)C(=O)N[C@@H](CO)C(=O)N[C@@H](Cc1c[nH]cn1)C(=O)N[C@H](C(=O)NCC(=O)N1[C@H](C(=O)N[C@@H](CCCC)C(=O)N2CCC[C@H]2CC(=O)N[C@@H](CC(=O)O)Cc2ccccc2)C[C@@H]2CCCC[C@@H]21)C1Cc2ccccc2C1)C(=O)O [compound 625] ({Palmitoyl-γGlu-AEEA-AEEA}-[dQ]RP[NMeR][Cha]SH[Igl]G[Oic][Nle][β3hP][d(β3hF)]-OH)
0.463 nM | 3.79 nM | CCCCCCCCCCCCCCCC(=O)N[C@@H](CCC(=O)NCCOCCOCC(=O)NCCOCCOCC(=O)N[C@H](CCC(N)=O)C(=O)N[C@@H](CCCNC(=N)N)C(=O)N1CCC[C@H]1C(=O)N(C)[C@@H](CCCNC(=N)N)C(=O)N[C@@H](CC1CCCCC1)C(=O)N(CCC)CC(=O)N[C@@H](Cc1c[nH]cn1)C(=O)N[C@@H](CCCCN)C(=O)NCC(=O)N1CCCC[C@H]1C(=O)N[C@@H](CCCC)C(=O)NC(C)(C)C(=O)N[C@@H](Cc1ccc(Cl)cc1)C(=O)O)C(=O)O [compound 643] ({Palmitoyl-γGlu-AEEA-AEEA}-[dQ]RP[NMeR][Cha][NPrGly]HKG[Pip][Nle][Aib][Phe(4-Cl)]-OH)
0.203 nM | 0.486 nM | CCCCCCCCCCCCCCCC(=O)N[C@@H](CCC(=O)NCCOCCOCC(=O)NCCOCCOCC(=O)N[C@H](CCC(N)=O)C(=O)N[C@@H](CCCNC(=N)N)C(=O)N1CCC[C@H]1C(=O)N(C)[C@@H](CCCNC(=N)N)C(=O)N[C@@](C)(CC(C)C)C(=O)N[C@@H](CO)C(=O)N[C@@H](CN)C(=O)N[C@@H](CCCCN)C(=O)NCC(=O)N1[C@H](C(=O)N[C@@H](CCCC)C(=O)N2CCC[C@H]2CC(=O)N[C@@H](Cc2ccc(Cl)cc2)C(=O)O)C[C@@H]2CCCC[C@@H]21)C(=O)O [compound 630] ({Palmitoyl-γGlu-AEEA-AEEA}-[dQ]RP[NMeR][αMeL]S[Dap]KG[Oic][Nle][β3hP][Phe(4-Cl)]-OH)

Second part, the compound before the results:

Structure (SMILES) | EC50 (human APJ receptor) | EC50 (rat APJ receptor)
CC(=O)N[C@@H](CCCCNC(=N)N)C(=O)N[C@H](CCCNC(=N)N)C(=O)N[C@@H](CCC(N)=O)C(=O)N[C@@H](CCC(=O)O)C(=O)N1CCC[C@H]1C(=O)N[C@H](CCCNC(=N)N)C(=O)N(C)[C@@H](CC(C)C)C(=O)N[C@@H](CO)C(=O)N[C@@H](Cc1c[nH]cn1)C(=O)N[C@@H](CCCCN)C(=O)NCC(=O)N1[C@H](C(=O)N[C@@H](Cc2ccc(I)cc2)C(=O)N2CCC[C@H]2C(=O)N[C@H](Cc2ccc(-c3ccccc3)cc2)C(=O)O)C[C@@H]2CCCC[C@@H]21 [compound 77] (Ac-[hArg][dR]QEP[dR][NMeL]SHKG[Oic][Phe(4-I)]P[dBip]-OH) | 4.92 nM | 2.85 nM
CC(C)C[C@@H](C(=O)N[C@@H](CO)C(=O)N[C@@H](Cc1c[nH]cn1)C(=O)N[C@@H](CCCCN)C(=O)NCC(=O)N1[C@H](C(=O)N[C@@H](Cc2ccc(I)cc2)C(=O)N2CCC[C@H]2C(=O)N[C@H](Cc2ccc(-c3ccccc3)cc2)C(=O)O)C[C@@H]2CCCC[C@@H]21)N(C)C(=O)[C@@H](CCCNC(=N)N)NC(=O)[C@@H]1CCCN1C(=O)[C@H](CCCCNC(=N)N)NC(=O)[C@H](CCC(N)=O)NC(=O)[C@@H](CCCNC(=N)N)NC(=O)[C@H](CCCCNC(=N)N)NC(=O)COCCOCCNC(=O)COCCOCCNC(=O)CC[C@H](NC(=O)CCCCCCCCC(=O)O)C(=O)O [compound 289] | 0.914 nM | 1.3 nM
CCCCCCCCCCCCC(=O)N[C@@H](CCC(=O)NCCOCCOCC(=O)NCCOCCOCC(=O)N[C@@H](CCCCNC(=N)N)C(=O)N[C@H](CCCNC(=N)N)C(=O)N[C@@H](CCC(N)=O)C(=O)N[C@@H](CCCCNC(=N)N)C(=O)N1CCC[C@H]1C(=O)N[C@@H](CCCCN)C(=O)N(C)[C@@H](CC(C)C)C(=O)N[C@@H](CO)C(=O)N[C@@H](Cc1c[nH]cn1)C(=O)N[C@@H](CCCC)C(=O)NCC(=O)N1[C@H](C(=O)N[C@@H](Cc2ccc(I)cc2)C(=O)N2CCC[C@H]2C(=O)N[C@H](Cc2ccc(-c3ccccc3)cc2)C(=O)O)C[C@@H]2CCCC[C@@H]21)C(=O)O [compound 313] ({Tridecanoyl-γGlu-AEEA-AEEA}-[hArg][dR]Q[hArg]PK[NMeL]SH[Nle]G[Oic][Phe(4-I)]P[dBip]-OH) | 14.7 nM | 10.4 nM
